Laboratory results: patent US5047406A, “Substituted cyclohexanols as central nervous system agents” (Warner-Lambert Co., priority 1990, dated 1991)
Where two headings read alike, the source gives them in different places.

Tests used:
[1] = biological target: T1, [^3 H]-Spiroperidol Binding (Homo sapiens, UniProt P14416); assay: Inhibition of [^3 H]-spiroperidol binding in a receptor assay
T1 construct: receptor assay described by D. Grigoriadis and P. Seeman, Journal of Neurochemistry, Volume 44, pages 1925-1935 (1985); from tissue
Excerpt: (§1) The above test methods are incorporated herein by reference.

[2] = test system: Locomotor Activity in Mice; assay: Inhibition of locomotor activity in mice; type: in vivo; settings: for ED50: Mus musculus, ip; for Inhibition of Locomotor Activity in Mice ED50: IP
Excerpt: as §1

[3] = test system: Brain Striatal Dopamine Synthesis; assay: Effects on brain striatal dopamine synthesis in rats; type: in vivo; settings: for inhibition in vivo at 10 mg/kg: Rattus norvegicus; for Effects on Brain Striatal Dopamine Synthesis in Rats, % inhibition: 10 mg/kg
Excerpt: as §1

[4] = biological target: sigma opiate binding site; assay: Inhibition of [^3 H] DTG (ditoluoyl guanidine; a sigma ligand) binding
Description: The compounds of Formula I are valuable dopaminergic agents. […] Thus, the compounds of Formula I were tested for their ability to inhibit locomotor activity in mice according to the assay described by J. R. McLean, et al, Pharmacology, Biochemistry and Behavior, Volume 8, pages 97-99 (1978); for their ability to inhibit [[…] ]-spiroperidol binding in a receptor assay described by D. Grigoriadis and P. Seeman, Journal of Neurochemistry, Volume 44, pages 1925-1935 (1985); and for their ability to inhibit dopamine synthesis in rats according to the protocol described by J. R. Walters and R. H. Roth, Naunyn-Schmiedeberg's Archives of Pharmacology, Volume 296, pages 5-14 (1976). The above test methods are incorporated herein by reference. The data in the table show the dopaminergic activity of representative compounds of Formula I. Additionally, the compounds of Formula I are ligands for the sigma opiate binding site. The data in the table show the inhibition of [^3 H] DTG (ditoluoyl guanidine; a sigma ligand) binding by representative compounds of Formula I, according to the method of E. Weber, et al, Proceedings of the National Academy of Sciences, USA, Volume 83, pages 8784-8788 (1986).

[5] = read-out: Inhibition of [^3 H]-Spiroperidol Binding IC50
[6] = Inhibition of [^3 H]-Spiroperidol Binding IC50

T1 sequence (P14416 whole entry): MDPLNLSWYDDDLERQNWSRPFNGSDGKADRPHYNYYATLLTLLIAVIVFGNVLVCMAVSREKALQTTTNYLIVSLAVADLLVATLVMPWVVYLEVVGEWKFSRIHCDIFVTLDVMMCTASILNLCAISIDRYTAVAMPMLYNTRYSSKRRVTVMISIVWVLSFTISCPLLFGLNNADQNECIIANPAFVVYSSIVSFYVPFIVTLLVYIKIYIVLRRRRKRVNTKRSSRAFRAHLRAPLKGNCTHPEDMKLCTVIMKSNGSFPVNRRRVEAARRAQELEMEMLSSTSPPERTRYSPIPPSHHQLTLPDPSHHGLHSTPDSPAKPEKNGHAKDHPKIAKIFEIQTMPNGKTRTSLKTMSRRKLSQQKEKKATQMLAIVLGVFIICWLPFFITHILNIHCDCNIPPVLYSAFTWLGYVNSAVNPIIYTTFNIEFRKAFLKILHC

SMILES	IC50 [1, 5] [nM]	ED50 [2] [mg/kg]	inhibition in vivo at 10 mg/kg ([3]; ip) [%]	inhibition in vivo at 10 mg/kg ([3]; IP) [%]	other results
O=C(N[C@H]1CC[C@H](CCN2CCN(c3ccccn3)CC2)CC1)c1ccccc1 [Example 52, trans N-[4-[2-[4-(2-Pyridinyl)-1-piperazinyl]ethyl]cyclohexyl]benzamide]	440	0.16	87		
COc1ccc(C2(O)CCC(CCN3CCN(c4ccccn4)CC3)CC2)cc1 (stereo not drawn) [Example 15, trans-1-(4-Methoxyphenyl)-4-[2-[4-(2-pyridinyl)-1-piperazinyl]ethyl]cyclohexanol]	932				Inhibition of Locomotor Activity in Mice ED50 [2]: 0.3 mg/kg; Effects on Brain Striatal Dopamine Synthesis in Rats, % inhibition ([3]; IP): 52%
OC1(c2ccccc2)CCC(CCN2CCN(c3ccccn3)CC2)CC1 (stereo not shown) [Example 5, 1-Phenyl-4-[2-[4-(2-pyridinyl)-1-piperazinyl]ethyl]cyclohexanol]	537	1.8	35		
Cc1ccc(C(=O)N[C@H]2CC[C@H](CCN3CCN(c4ccccn4)CC3)CC2)cc1 [Example 54, trans 4-Methyl-N-[4-[2-[4-(2-pyridinyl)-1-piperazinyl]ethyl]cyclohexyl]benzamide]	290	0.11	0		
OC1(c2cccnc2)CCC(CCN2CC=C(c3ccccc3)CC2)CC1 (stereo not drawn) [Example 12, cis-1-(3-Pyridinyl)-4-[2-[3,6-dihydro-4-phenyl-1(2H)-pyridinyl]ethyl]cyclohexanol]	116	0.25		79	
CN(C(=O)c1ccccc1)[C@H]1CC[C@H](N2CCN(c3ccccn3)CC2)CC1 [Example 42, trans N-Methyl-N-[4-[4-(2-pyridinyl)-1-piperazinyl]cyclohexyl]benzamide]	4840	2.4	15		
OC1(c2cccs2)CCC(CCN2CCN(c3ccccn3)CC2)CC1 (stereo not drawn) [Example 3, cis-4-[2-[4-(2-Pyridinyl)-1-piperazinyl]ethyl]-1-(2-thienyl)cyclohexanol]	262	1.3	67		IC50 [4]: 6 nM
OC1(c2ccc(F)cc2)CCC(CCN2CCN(c3ccccn3)CC2)CC1 (stereo not shown) [Example 7, 1-(4-Fluorophenyl)-4-[2-[4-(2-pyridinyl)-1-piperazinyl]ethyl]cyclohexanol]		0.64	48		inhibition at 10 µM ([1]; at 10^-5 M): 94%; IC50 [4]: 16.5 nM
O=C(N[C@H]1CC[C@H](N2CC=C(c3ccccc3)CC2)CC1)c1ccccc1 [Example 46, trans N-[4-(3,6-Dihydro-4-phenyl-1(2H)-pyridinyl)cyclohexyl]benzamide]	360	0.16		95	
O=C(N[C@H]1CC[C@@H](CCN2CCN(c3ccccn3)CC2)CC1)c1ccccc1 [Example 53, cis N-[4-[2-[4-(2-Pyridinyl)-1-piperazinyl]ethyl]cyclohexyl]benzamide]	3280	4.5	36		
COc1ccc(C2(O)CCC(CCN3CCN(c4ccccn4)CC3)CC2)cc1 (stereo not drawn) [Example 8, cis-1-(4-Methoxyphenyl)-4-[2-[4-(2-pyridinyl)-1-piperazinyl]ethyl]cyclohexanol]	169				Inhibition of Locomotor Activity in Mice ED50 [2]: 0.9 mg/kg; Effects on Brain Striatal Dopamine Synthesis in Rats, % inhibition ([3]; IP): 88%
O=C(N[C@H]1CC[C@H](CN2CCN(c3ccccn3)CC2)CC1)c1ccccc1 [Example 60, trans N-[4-[[4-(2-Pyridinyl)-1-piperazinyl]methyl]cyclohexyl]benzamide]		1	36		
O=C(N[C@H]1CC[C@H](CCN2CC=C(c3ccccc3)CC2)CC1)c1cccs1 [Example 71, trans N-[4-[2-(3,6-Dihydro-4-phenyl-1(2H)-pyridinyl)ethyl]cyclohexyl]-2-thiophenecarboxamide]	210	0.21		79	
O=C(N[C@H]1CC[C@H](CCN2CCN(c3ccccn3)CC2)CC1)c1ccc(Cl)c(Cl)c1 [Example 59, trans 3,4-Dichloro-N-[4-[2-[4-(2-pyridinyl)-1-piperazinyl]ethyl]cyclohexyl]benzamide]		14.4	7		
O=C(N[C@H]1CC[C@H](N2CC=C(c3ccccc3)CC2)CC1)c1cccnc1 [Example 49, trans N-[4-(3,6-Dihydro-4-phenyl-1(2H)-pyridinyl)cyclohexyl]-3-pyridinecarboxamide]	600	2.4		72	
CC(=O)N[C@H]1CC[C@H](CCN2CCN(c3ccccn3)CC2)CC1 [Example 58, trans N-[4-[2-[4-(2-Pyridinyl)-1-piperazinyl]ethyl]cyclohexyl]acetamide]		0.03	87		
OC1(c2ccsc2)CCC(CCN2CCN(c3ccccn3)CC2)CC1 (stereo not shown) [Example 14, 4-[2-[4-(2-Pyridinyl)-1-piperazinyl]ethyl]-1-(3-thienyl)cyclohexanol]	312	0.48	37		IC50 [4]: 4.5 nM
OC1(c2ccccn2)CCC(CCN2CC=C(c3ccccc3)CC2)CC1 (stereo not drawn) [Example 11, cis-1-(2-Pyridinyl)-4-[2-[3,6-dihydro-4-phenyl-1(2H)-pyridinyl]ethyl]cyclohexanol]	156	0.64			IC50 [4]: 3.5 nM
O=C(N[C@H]1CC[C@H](N2CCN(c3ccccn3)CC2)CC1)c1ccccc1 [Example 40, trans N-[4-[4-(2-Pyridinyl)-1-piperazinyl]cyclohexyl]benzamide]	2800	0.36	65		
O=C(N[C@H]1CC[C@H](N2CC=C(c3ccccc3)CC2)CC1)c1cccs1 [Example 47, trans N-[4-(3,6-Dihydro-4-phenyl-1(2H)-pyridinyl)cyclohexyl]-2-thiophenecarboxamide]	300	0.23		74	
OC1(c2cccs2)CCC(CCN2CCN(c3ccccn3)CC2)CC1 (stereo not drawn) [Example 4, trans-4-[2-[4-(2-Pyridinyl)-1-piperazinyl]ethyl]-1-(2-thienyl)cyclohexanol]	341				Inhibition of Locomotor Activity in Mice ED50 [2]: 1.1 mg/kg; Effects on Brain Striatal Dopamine Synthesis in Rats, % inhibition ([3]; IP): 47%; IC50 [4]: 5 nM
O=C(N[C@H]1CC[C@H](CCN2CC=C(c3ccccc3)CC2)CC1)c1ccccc1 [Example 72, trans N-[4-[2-(3,6-Dihydro-4-phenyl-1(2H)-pyridinyl)ethyl]cyclohexyl]benzamide]		0.27		74	IC50 [1, 6]: 100 nM
O=C(N[C@H]1CC[C@H](N2CC=C(c3ccccc3)CC2)CC1)c1ccsc1 [Example 48, trans N-[4-(3,6-Dihydro-4-phenyl-1(2H)-pyridinyl)cyclohexyl]-3-thiophenecarboxamide]		0.27		88	IC50 [1, 6]: 90 nM
